Results reported in paper PMC12171880, “Selectivity and Safety Characterization of a Xanthine–Imidazothiazole Lead Structure: a Novel Tryptophan Hydroxylase Inhibitor of Peripheral Serotonin Synthesis” (ACS Pharmacology & Translational Science, 2025).

Key:
[1] = target: T1, human recombinant PAH (Homo sapiens, UniProt P00439); assay: PAH enzymatic activity assay (fluorescence, 96-well); format: biochemical
T1 construct: expression vectors for full-length human PAH (UniProt entry P00439); made in house; host or cells: E. coli T7 Express (NEB) with pRARE2
T1 sequence (P00439 1-452): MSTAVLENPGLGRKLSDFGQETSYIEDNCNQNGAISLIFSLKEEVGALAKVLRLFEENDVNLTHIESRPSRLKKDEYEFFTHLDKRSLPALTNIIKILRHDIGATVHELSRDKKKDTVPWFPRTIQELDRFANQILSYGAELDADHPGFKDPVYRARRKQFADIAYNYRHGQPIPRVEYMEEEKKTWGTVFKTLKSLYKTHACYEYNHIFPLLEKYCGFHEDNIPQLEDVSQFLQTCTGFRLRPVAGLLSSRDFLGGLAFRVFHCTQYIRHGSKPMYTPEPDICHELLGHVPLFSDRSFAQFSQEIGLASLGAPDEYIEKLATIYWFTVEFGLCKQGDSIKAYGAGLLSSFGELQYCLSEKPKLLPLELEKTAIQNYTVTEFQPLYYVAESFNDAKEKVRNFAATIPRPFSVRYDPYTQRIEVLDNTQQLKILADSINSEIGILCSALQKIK

[2] = test system: A3 receptor; set-up: method as in EMA/508026/2017; conditions: 10 μM; ref EMA/508026/2017; cited from earlier work
[3] = test system: 5-HT2A receptor; set-up: method as in EMA/508026/2017; conditions: 10 μM; ref EMA/508026/2017; cited from earlier work
[4] = test system: 5-HT1B receptor; set-up: method as in EMA/508026/2017; conditions: 10 μM; ref EMA/508026/2017; cited from earlier work
[5] = target: T2, human recombinant TPH1 (Homo sapiens, UniProt P17752); assay: TPH1 enzymatic activity assay (fluorescence, 96-well); format: biochemical
T2 construct: Full-length human TPH1 and TPH2 (UniProt entries P17752 and Q8IWU9); MBP (N); made in house
T2 sequence (P17752 1-444): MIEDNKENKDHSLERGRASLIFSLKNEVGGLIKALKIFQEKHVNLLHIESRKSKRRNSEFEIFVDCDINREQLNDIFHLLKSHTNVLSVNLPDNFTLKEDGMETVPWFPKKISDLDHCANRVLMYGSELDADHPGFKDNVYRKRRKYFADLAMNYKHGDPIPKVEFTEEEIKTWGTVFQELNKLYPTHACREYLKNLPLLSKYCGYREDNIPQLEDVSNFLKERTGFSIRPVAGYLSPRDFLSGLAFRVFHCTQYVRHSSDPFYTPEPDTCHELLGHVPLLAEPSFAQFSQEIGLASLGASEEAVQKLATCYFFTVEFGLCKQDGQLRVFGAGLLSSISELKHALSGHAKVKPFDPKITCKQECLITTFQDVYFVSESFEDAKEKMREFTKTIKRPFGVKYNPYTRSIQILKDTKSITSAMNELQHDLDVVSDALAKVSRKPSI

[6] = target: T3, recombinant human TH (Homo sapiens, UniProt P07101); assay: TH enzymatic activity assay (fluorescence, 96-well); format: biochemical
T3 construct: For purification of MBP-tagged full-length PAH and TH; made in house; host or cells: E. coli T7 Express (NEB) with pRARE2
T3 sequence (P07101 whole entry): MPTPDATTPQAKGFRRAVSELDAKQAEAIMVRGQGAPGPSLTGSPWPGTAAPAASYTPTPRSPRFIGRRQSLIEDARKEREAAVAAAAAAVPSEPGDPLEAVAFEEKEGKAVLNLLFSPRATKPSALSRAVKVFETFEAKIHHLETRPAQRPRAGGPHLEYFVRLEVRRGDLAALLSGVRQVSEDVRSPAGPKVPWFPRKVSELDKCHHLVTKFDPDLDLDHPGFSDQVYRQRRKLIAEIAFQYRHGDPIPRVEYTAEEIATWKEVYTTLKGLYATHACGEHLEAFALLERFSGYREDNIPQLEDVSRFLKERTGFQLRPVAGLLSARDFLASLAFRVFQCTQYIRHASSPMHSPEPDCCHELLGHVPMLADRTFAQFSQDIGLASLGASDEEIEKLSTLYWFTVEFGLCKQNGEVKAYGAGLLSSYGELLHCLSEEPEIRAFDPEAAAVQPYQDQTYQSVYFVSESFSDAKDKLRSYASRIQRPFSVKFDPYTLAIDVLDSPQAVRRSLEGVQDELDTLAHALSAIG
Method: The TH enzymatic activity assay was performed using a 96-well plate format (Greiner). […] To initiate the reaction, L-Tyr (Fluka) was added (final concentration, 30 μM). The assay contained positive control samples (complete reaction mix, no inhibitor test compound), negative control samples (reaction mix without BH4), and an additional L-Tyr control (reaction mix without BH4, spiked with 25.5 μM or 27 μM L-Tyr) to measure the progression of the enzymatic reaction. All samples were measured in technical triplicates. The TH assay was performed at RT for 30 min. Depletion of the reaction substrate (L-Tyr) was continuously monitored at 240 s intervals by fluorescence measurements (ex.280 nm/em.306 nm) for 12 min using a Tecan Infinite 200 plate reader.
Negative control values (no enzyme or no substrate) were deducted from the positive control (full enzyme activity) and test compound values. Subsequently, the data were normalized (Pos. Ctr. = 100% of the enzyme activity). The results were further analyzed with GraphPad Prism 9 using the nonlinear regression model: log(inhibitor) vs. response−variableslope(fourparameters) which fits the following equation to the data: Y=Bottom+(Top−Bottom)/(1+10^((logIC50−X)×HillSlope))
The IC50 values were calculated from three independent experiments and are given as the mean ± SD.

[7] = target: T4, human recombinant TPH2 (Homo sapiens, UniProt Q8IWU9); assay: TPH2 enzymatic activity assay (fluorescence, 96-well); format: biochemical
T4 construct: Full-length human TPH1 and TPH2 (UniProt entries P17752 and Q8IWU9); MBP (N); made in house
T4 sequence (Q8IWU9 1-490): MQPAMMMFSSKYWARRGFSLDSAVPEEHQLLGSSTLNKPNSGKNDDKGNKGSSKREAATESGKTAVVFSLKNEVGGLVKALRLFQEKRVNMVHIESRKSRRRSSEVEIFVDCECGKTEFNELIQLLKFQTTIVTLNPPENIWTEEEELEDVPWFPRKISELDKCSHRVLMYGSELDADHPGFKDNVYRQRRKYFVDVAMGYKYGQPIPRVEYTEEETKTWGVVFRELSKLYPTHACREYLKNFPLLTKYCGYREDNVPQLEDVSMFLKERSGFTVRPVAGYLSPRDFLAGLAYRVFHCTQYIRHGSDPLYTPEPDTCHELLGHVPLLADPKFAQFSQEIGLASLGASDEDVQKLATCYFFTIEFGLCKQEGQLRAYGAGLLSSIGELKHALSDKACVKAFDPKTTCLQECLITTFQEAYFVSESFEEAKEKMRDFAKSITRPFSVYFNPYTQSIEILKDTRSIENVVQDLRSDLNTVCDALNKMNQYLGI

[8] = test system: 75 human receptors, enzymes, and ion channels; set-up: method as in EMA/508026/2017; conditions: ref EMA/508026/2017; cited from earlier work
[9] = 10 nM to 30 μM, 175 μM L-Phe, 10 μM BH4

Cc1ccn(-c2cc(Cl)ccc2[C@@H](Oc2cc(-c3ccc(C[C@H](N)C(=O)O)cc3)nc(N)n2)C(F)(F)F)n1 [LP778902, Telotristat]
Mean PAH activity [%] ([1]; 10 nM): 99.68%
IC50 [1, 9]: 2.69 µM
Mean PAH activity [%] ([1]; 30 nM): 96.34%
Mean PAH activity [%] ([1]; 100 nM): 95.74%
Mean PAH activity [%] ([1]; 300 nM): 92.85%
Mean PAH activity [%] ([1]; 1 μM): 79.01%
Mean PAH activity [%] ([1]; 3 μM): 42.58%
Mean PAH activity [%] ([1]; 10 μM): 18.22%
Mean PAH activity [%] ([1]; 30 μM): 7.18%
IC50 ([1]; supplementary CSV): 2.69 µM
inhibition at A3 receptor [2]: more than 50%
inhibition at 5-HT2A receptor [3]: more than 50%
inhibition at 5-HT1B receptor [4]: more than 50%
Mean TPH1 activity [%] ([5]; 3 nM): 99.75%
Mean TPH1 activity [%] ([5]; 10 nM): 100.85%
Mean TPH1 activity [%] ([5]; 30 nM): 101.72%
Mean TPH1 activity [%] ([5]; 100 nM): 100.00%
Mean TPH1 activity [%] ([5]; 300 nM): 91.38%
Mean TPH1 activity [%] ([5]; 1 μM): 12.20%
Mean TPH1 activity [%] ([5]; 3 μM): 4.78%
Mean TPH1 activity [%] ([5]; 10 μM): 5.34%
Mean TH activity [%] ([6]; 10 nM): 91.23%
IC50 ([6]; 10 nM to 30 μM, 30 μM L-Tyr, 5 μM BH4): 8.11 µM
Mean TH activity [%] ([6]; 30 nM): 96.35%
Mean TH activity [%] ([6]; 100 nM): 91.73%
Mean TH activity [%] ([6]; 300 nM): 96.86%
Mean TH activity [%] ([6]; 1 μM): 89.03%
Mean TH activity [%] ([6]; 3 μM): 79.57%
Mean TH activity [%] ([6]; 10 μM): 43.11%
Mean TH activity [%] ([6]; 30 μM): 14.34%
Mean TPH2 activity [%] ([7]; 3 nM): 99.93%
Mean TPH2 activity [%] ([7]; 10 nM): 100.78%
Mean TPH2 activity [%] ([7]; 30 nM): 99.88%
Mean TPH2 activity [%] ([7]; 100 nM): 97.93%
Mean TPH2 activity [%] ([7]; 300 nM): 92.18%
Mean TPH2 activity [%] ([7]; 1 μM): 10.61%
Mean TPH2 activity [%] ([7]; 3 μM): 3.90%
Mean TPH2 activity [%] ([7]; 10 μM): 3.17%

CCOC(=O)[C@@H](N)Cc1ccc(-c2cc(O[C@H](c3ccc(Cl)cc3-n3ccc(C)n3)C(F)(F)F)nc(N)n2)cc1 [LX1606, Telotristat ethyl]
Mean PAH activity [%] ([1]; 10 nM): 96.86%
IC50 [1, 9]: 7.91 µM
Mean PAH activity [%] ([1]; 30 nM): 97.35%
Mean PAH activity [%] ([1]; 300 nM): 94.55%
Mean PAH activity [%] ([1]; 1 μM): 91.16%
Mean PAH activity [%] ([1]; 3 μM): 64.20%
Mean PAH activity [%] ([1]; 10 μM): 37.02%
Mean PAH activity [%] ([1]; 30 μM): 33.74%
PAH activity, not reduced below ([1]; highest tested concentration (30 μM)): ≥ 30%
IC50 ([1]; supplementary CSV): 7.91 µM
IC50 ([5]; 3 nM to 10 μM, 15 μM L-Trp, 20 μM BH4): 1.44 µM
number of 75 receptors with over 50% of the activity inhibited [8]: 16
Mean TH activity [%] ([6]; 10 nM): 94.16%
Mean TH activity [%] ([6]; 30 nM): 93.57%
Mean TH activity [%] ([6]; 100 nM): 94.52%
Mean TH activity [%] ([6]; 300 nM): 91.31%
Mean TH activity [%] ([6]; 1 μM): 96.27%
Mean TH activity [%] ([6]; 3 μM): 96.83%
Mean TH activity [%] ([6]; 10 μM): 87.53%
Mean TH activity [%] ([6]; 30 μM): 71.72%
reduction of TH activity compared to the positive control ([6]; two highest concentrations (10 and 30 μM)): ≤ 30%
